# Data as given in PubChem BioAssay AID330 (DTP/NCI, 2004).
# Where “and” joins values, the source holds several entries; their conditions need not be identical. Identical values can stand only once. Inconclusive results and toxic doses are left out.
# Tested on: P388 leukemia ip, CD2F1 mice, survival T/C
# Assay: NCI In Vivo Anticancer Drug Screen. Data for tumor model P388 Leukemia (intraperitoneal) in CD2F1 (CDF1) mice
# Details: endpoint: median survival time, higher = longer survival
# Summary of the method: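 Mice carrying the transplanted tumor received test compound or vehicle. Survival was recorded in each group, and the value is the treated-group measurement divided by that of the vehicle-treated control group.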
# [1] = dose: 60.0 mg/kg/injection, schedule: Q01DX005 (ip), vehicle: Klucel (hydroxypropylcellulose) (HPC)
# [2] = dose: 120.0 mg/kg/injection, schedule: Q01DX005 (ip), vehicle: Klucel (hydroxypropylcellulose) (HPC)
# [3] = dose: 25.0 mg/kg/injection, schedule: Q01DX009 (ip), vehicle: saline with Tween-80
# [4] = dose: 50.0 mg/kg/injection, schedule: Q01DX009 (ip), vehicle: saline with Tween-80
# [5] = dose: 50.0 mg/kg/injection, schedule: Q01DX005 (ip), vehicle: Klucel (hydroxypropylcellulose) (HPC)
# [6] = dose: 100.0 mg/kg/injection, schedule: Q01DX005 (ip), vehicle: Klucel (hydroxypropylcellulose) (HPC)
smiles,measurement,setting,value
CC[C@]1(O)C[C@H]2CN(CCc3c([nH]c4ccccc34)[C@@](C(=O)OC)(c3cc4c(cc3OC)N(C)[C@H]3[C@@](O)(C(=O)OC)[C@H](OC(C)=O)[C@]5(CC)C=CCN6CC[C@]43[C@@H]65)C2)C1,T/C,"dose: 0.03 mg/kg/injection, schedule: Q04DX003 (ip), vehicle: water",100 % of control
same,T/C,"dose: 0.13 mg/kg/injection, schedule: Q01DX005 (ip), vehicle: saline",172 % of control
same,T/C,"dose: 0.13 mg/kg/injection, schedule: Q01DX009 (ip), vehicle: saline",162 % of control
same,T/C,"dose: 0.16 mg/kg/injection, schedule: Q01DX009 (ip), vehicle: saline",160 % of control
same,T/C,"dose: 0.25 mg/kg/injection, schedule: Q01DX005 (ip), vehicle: saline",202 % of control
same,T/C,"dose: 0.38 mg/kg/injection, schedule: Q04DX003 (ip), vehicle: saline",162 % of control
same,T/C,"dose: 0.4 mg/kg/injection, schedule: Q04DX003 (ip), vehicle: water",160 % of control
same,T/C,"dose: 0.45 mg/kg/injection, schedule: Q01DX009 (ip), vehicle: saline",168 % of control
same,T/C,"dose: 0.5 mg/kg/injection, schedule: Q01DX001 (ip), vehicle: saline",150 % of control
same,T/C,"dose: 0.5 mg/kg/injection, schedule: Q01DX005 (ip), vehicle: saline",163 % of control and 177 % of control
same,T/C,"dose: 0.5 mg/kg/injection, schedule: Q04DX003 (ip), vehicle: saline",169 % of control
same,T/C,"dose: 0.52 mg/kg/injection, schedule: Q04DX002 (ip), vehicle: saline",157 % of control
same,T/C,"dose: 0.63 mg/kg/injection, schedule: Q04DX003 (ip), vehicle: saline",157 % of control and 248 % of control
same,T/C,"dose: 0.64 mg/kg/injection, schedule: Q04DX002 (ip), vehicle: saline",179 % of control
same,T/C,"dose: 0.65 mg/kg/injection, schedule: Q04DX003 (ip), vehicle: saline",173 % of control
same,T/C,"dose: 0.67 mg/kg/injection, schedule: Q04DX003 (ip), vehicle: saline",185 % of control
same,T/C,"dose: 0.75 mg/kg/injection, schedule: Q01DX009 (ip), vehicle: saline",91 % of control
same,T/C,"dose: 0.75 mg/kg/injection, schedule: Q04DX003 (ip), vehicle: saline",198 % of control
same,T/C,"dose: 0.8 mg/kg/injection, schedule: Q01DX009 (ip), vehicle: saline",90 % of control
same,T/C,"dose: 0.8 mg/kg/injection, schedule: Q04DX003 (ip), vehicle: water",173 % of control and 185 % of control
same,T/C,"dose: 0.86 mg/kg/injection, schedule: Q04DX002 (ip), vehicle: saline",196 % of control
same,T/C,"dose: 1.0 mg/kg/injection, schedule: Q01DX001 (ip), vehicle: Klucel (hydroxypropylcellulose) (HPC)",163 % of control
same,T/C,"dose: 1.0 mg/kg/injection, schedule: Q01DX001 (ip), vehicle: saline",162 % of control
same,T/C,"dose: 1.0 mg/kg/injection, schedule: Q04DX003 (ip), vehicle: water",150 % of control
same,T/C,"dose: 1.08 mg/kg/injection, schedule: Q04DX002 (ip), vehicle: saline",199 % of control
same,T/C,"dose: 1.08 mg/kg/injection, schedule: Q04DX003 (ip), vehicle: saline",186 % of control and 201 % of control
same,T/C,"dose: 1.2 mg/kg/injection, schedule: Q04DX003 (ip), vehicle: saline",189 % of control
same,T/C,"dose: 1.44 mg/kg/injection, schedule: Q04DX002 (ip), vehicle: saline",197 % of control and 198 % of control
same,T/C,"dose: 1.44 mg/kg/injection, schedule: Q04DX003 (ip), vehicle: saline",97 % of control
same,T/C,"dose: 1.6 mg/kg/injection, schedule: Q04DX003 (ip), vehicle: water",228 % of control and 229 % of control and 234 % of control
same,T/C,"dose: 1.8 mg/kg/injection, schedule: Q04DX002 (ip), vehicle: saline",218 % of control
same,T/C,"dose: 1.8 mg/kg/injection, schedule: Q04DX003 (ip), vehicle: saline",213 % of control and 220 % of control
same,T/C,"dose: 2.0 mg/kg/injection, schedule: Q01DX001 (ip), vehicle: clinical formulation",150 % of control
same,T/C,"dose: 2.0 mg/kg/injection, schedule: Q04DX003 (oral), vehicle: water",110 % of control
same,T/C,"dose: 2.4 mg/kg/injection, schedule: Q04DX002 (ip), vehicle: saline",376 % of control
same,T/C,"dose: 3.2 mg/kg/injection, schedule: Q04DX003 (ip), vehicle: water",100 % of control
same,T/C,"dose: 3.33 mg/kg/injection, schedule: Q04DX003 (ip), vehicle: saline",240 % of control
same,T/C,"dose: 4.0 mg/kg/injection, schedule: Q01DX001 (ip), vehicle: Klucel (hydroxypropylcellulose) (HPC)",216 % of control
same,T/C,"dose: 4.0 mg/kg/injection, schedule: Q01DX001 (ip), vehicle: clinical formulation",171 % of control and 177 % of control
same,T/C,"dose: 4.0 mg/kg/injection, schedule: Q01DX001 (ip), vehicle: saline",162 % of control and 200 % of control
same,T/C,"dose: 8.0 mg/kg/injection, schedule: Q01DX001 (ip), vehicle: Klucel (hydroxypropylcellulose) (HPC)",177 % of control
same,T/C,"dose: 8.0 mg/kg/injection, schedule: Q01DX001 (ip), vehicle: clinical formulation",190 % of control
same,T/C,"dose: 125.0 micrograms/kg/injection, schedule: Q01DX009 (ip), vehicle: water",172 % of control
same,T/C,"dose: 250.0 micrograms/kg/injection, schedule: Q01DX009 (ip), vehicle: water",164 % of control
same,T/C,"dose: 500.0 micrograms/kg/injection, schedule: Q01DX009 (ip), vehicle: water",92 % of control
COc1c2cc(O)cc1CCCC1=CC(=O)C=C(CCC2)C1=O,T/C,"dose: 100.0 mg/kg/injection, schedule: Q01DX001 (ip), vehicle: Klucel (hydroxypropylcellulose) (HPC)",99 % of control
same,T/C,"dose: 200.0 mg/kg/injection, schedule: Q01DX001 (ip), vehicle: Klucel (hydroxypropylcellulose) (HPC)",99 % of control
same,T/C,"dose: 400.0 mg/kg/injection, schedule: Q01DX001 (ip), vehicle: Klucel (hydroxypropylcellulose) (HPC)",108 % of control
O=C(O)CNC1CCCCC1,T/C,"dose: 60.0 mg/kg/injection, schedule: Q01DX005 (ip), vehicle: saline",95 % of control
same,T/C,"dose: 120.0 mg/kg/injection, schedule: Q01DX005 (ip), vehicle: saline",92 % of control
same,T/C,"dose: 240.0 mg/kg/injection, schedule: Q01DX005 (ip), vehicle: saline",87 % of control
COc1cc([N+](=O)[O-])cc2c1OC1(C=C2)Oc2ccccc2N1C (centres undefined),T/C,"dose: 15.0 mg/kg/injection, schedule: Q01DX005 (ip), vehicle: Klucel (hydroxypropylcellulose) (HPC)",103 % of control
same,T/C,"dose: 30.0 mg/kg/injection, schedule: Q01DX005 (ip), vehicle: Klucel (hydroxypropylcellulose) (HPC)",100 % of control
same,T/C,[1],94 % of control
same,T/C,[2],100 % of control
O=C1NN(c2ccccc2)C(=O)/C1=C\c1ccccc1O,T/C,[3],100 % of control and 96 % of control
same,T/C,"dose: 43.75 mg/kg/injection, schedule: Q01DX005 (ip), vehicle: Klucel (hydroxypropylcellulose) (HPC)",104 % of control
same,T/C,"dose: 43.75 mg/kg/injection, schedule: Q01DX009 (ip), vehicle: Klucel (hydroxypropylcellulose) (HPC)",95 % of control
same,T/C,[4],94 % of control and 98 % of control
same,T/C,"dose: 87.5 mg/kg/injection, schedule: Q01DX005 (ip), vehicle: Klucel (hydroxypropylcellulose) (HPC)",97 % of control
same,T/C,"dose: 100.0 mg/kg/injection, schedule: Q01DX009 (ip), vehicle: saline with Tween-80",86 % of control and 97 % of control
same,T/C,"dose: 175.0 mg/kg/injection, schedule: Q01DX005 (ip), vehicle: Klucel (hydroxypropylcellulose) (HPC)",98 % of control
same,T/C,"dose: 175.0 mg/kg/injection, schedule: Q01DX009 (ip), vehicle: Klucel (hydroxypropylcellulose) (HPC)",102 % of control
same,T/C,"dose: 200.0 mg/kg/injection, schedule: Q01DX009 (ip), vehicle: saline with Tween-80",86 % of control and 96 % of control
same,T/C,"dose: 350.0 mg/kg/injection, schedule: Q01DX005 (ip), vehicle: Klucel (hydroxypropylcellulose) (HPC)",92 % of control
same,T/C,"dose: 350.0 mg/kg/injection, schedule: Q01DX009 (ip), vehicle: Klucel (hydroxypropylcellulose) (HPC)",109 % of control
same,T/C,"dose: 400.0 mg/kg/injection, schedule: Q01DX009 (ip), vehicle: saline with Tween-80",111 % of control
O=C(O)C(=Cc1cccc2ccccc12)C(=O)O,T/C,"dose: 25.0 mg/kg/injection, schedule: Q01DX005 (ip), vehicle: Klucel (hydroxypropylcellulose) (HPC)",89 % of control
same,T/C,[5],100 % of control
same,T/C,[6],89 % of control
OCC1COC(c2ccccc2)=N1 (centres undefined),T/C,[5],100 % of control
same,T/C,[6],99 % of control
same,T/C,"dose: 200.0 mg/kg/injection, schedule: Q01DX005 (ip), vehicle: Klucel (hydroxypropylcellulose) (HPC)",100 % of control
CC(=Nc1ccc(C)cc1N)c1c(O)cc(C)oc1=O,T/C,[1],95 % of control
same,T/C,[2],96 % of control
same,T/C,"dose: 240.0 mg/kg/injection, schedule: Q01DX005 (ip), vehicle: Klucel (hydroxypropylcellulose) (HPC)",101 % of control
CCOS(=O)(=O)CCl,T/C,"dose: 12.5 mg/kg/injection, schedule: Q01DX009 (ip), vehicle: saline with Tween-80",106 % of control
same,T/C,[3],100 % of control
same,T/C,[4],107 % of control and 112 % of control
